Experimental data as given in patent US9550742B2, “11-OXO-10,11-dihydrodibenzo[B,F][1,4]thiazepine S-oxide derivatives and their use as dopamine D2 receptor antagonists” (The United States of America, as Represented by the …, priority 2013, dated 2017).

Assays:
D3 = D3 (Homo sapiens, UniProt P35462); test: Affinity profile panel: D3; settings: inhibition of binding
DOR = DOR (Homo sapiens, UniProt P41143); test: Affinity profile panel: DOR; settings: inhibition of binding
5-HT1B = 5-HT1B (Homo sapiens, UniProt P28222); test: Affinity profile panel: 5-HT1B; settings: inhibition of binding
Sequence of 5-HT1B (P28222 whole entry, species assumed): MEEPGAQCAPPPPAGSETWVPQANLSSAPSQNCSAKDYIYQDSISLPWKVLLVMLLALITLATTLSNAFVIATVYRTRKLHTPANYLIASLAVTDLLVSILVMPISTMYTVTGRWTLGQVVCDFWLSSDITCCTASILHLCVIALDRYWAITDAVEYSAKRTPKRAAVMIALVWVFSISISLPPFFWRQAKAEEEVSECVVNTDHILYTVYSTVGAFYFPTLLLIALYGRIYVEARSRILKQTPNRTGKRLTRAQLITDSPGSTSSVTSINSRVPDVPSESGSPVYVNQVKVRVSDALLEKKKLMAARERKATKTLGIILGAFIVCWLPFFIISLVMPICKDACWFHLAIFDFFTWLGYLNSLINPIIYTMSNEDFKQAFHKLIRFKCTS

GABAA = test: Affinity profile panel: GABAA; settings: inhibition of binding
5-HT1A = 5-HT1A (Homo sapiens, UniProt P08908); test: Affinity profile, panel of 46 GPCRs and related proteins: 5-HT1A; settings: inhibition of binding
Sequence of 5-HT1A (P08908 whole entry, species assumed): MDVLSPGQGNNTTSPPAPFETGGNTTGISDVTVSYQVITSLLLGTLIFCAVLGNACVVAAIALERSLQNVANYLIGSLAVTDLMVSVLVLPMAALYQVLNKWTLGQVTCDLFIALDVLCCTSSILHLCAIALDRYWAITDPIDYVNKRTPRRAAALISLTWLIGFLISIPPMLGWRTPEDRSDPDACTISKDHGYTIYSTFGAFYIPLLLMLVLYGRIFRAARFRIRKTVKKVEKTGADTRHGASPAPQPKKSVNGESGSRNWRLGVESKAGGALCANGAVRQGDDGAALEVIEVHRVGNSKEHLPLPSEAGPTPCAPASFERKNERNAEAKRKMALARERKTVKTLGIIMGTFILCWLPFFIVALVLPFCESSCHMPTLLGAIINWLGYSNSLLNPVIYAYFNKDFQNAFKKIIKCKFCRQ

5-HT1D = 5-HT1D (Homo sapiens, UniProt P28221); test: Affinity profile panel: 5-HT1D; settings: inhibition of binding
Sequence of 5-HT1D (P28221 whole entry, species assumed): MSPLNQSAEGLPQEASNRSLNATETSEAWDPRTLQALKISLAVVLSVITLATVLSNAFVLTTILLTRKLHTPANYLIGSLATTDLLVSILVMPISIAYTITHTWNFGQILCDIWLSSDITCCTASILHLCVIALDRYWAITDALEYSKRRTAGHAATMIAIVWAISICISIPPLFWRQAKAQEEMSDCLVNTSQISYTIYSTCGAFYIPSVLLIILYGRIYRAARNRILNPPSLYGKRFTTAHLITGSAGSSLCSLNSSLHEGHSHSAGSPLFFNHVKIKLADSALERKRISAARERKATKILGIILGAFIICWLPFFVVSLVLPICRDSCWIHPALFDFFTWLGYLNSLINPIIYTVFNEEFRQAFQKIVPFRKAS

D5 = D5 (Homo sapiens, UniProt P21918); test: Affinity profile panel: D5; settings: inhibition of binding
5-HT2A = 5-HT2A (Homo sapiens, UniProt P28223); test: Affinity profile panel: 5-HT2A; settings: inhibition of binding
SERT = SERT (Homo sapiens, UniProt P31645); test: Affinity profile panel: SERT; settings: inhibition of binding
Description: (§1) Antipsychotic drugs (depending on the specific drug) typically interact with a range of serotonergic, adrenergic, histaminergic, and muscarinic receptors.

D1 [1] = target: T1, D1 (Homo sapiens, UniProt P21728); test: Affinity profile panel: D1; settings: inhibition of binding
T1 sequence (P21728 whole entry): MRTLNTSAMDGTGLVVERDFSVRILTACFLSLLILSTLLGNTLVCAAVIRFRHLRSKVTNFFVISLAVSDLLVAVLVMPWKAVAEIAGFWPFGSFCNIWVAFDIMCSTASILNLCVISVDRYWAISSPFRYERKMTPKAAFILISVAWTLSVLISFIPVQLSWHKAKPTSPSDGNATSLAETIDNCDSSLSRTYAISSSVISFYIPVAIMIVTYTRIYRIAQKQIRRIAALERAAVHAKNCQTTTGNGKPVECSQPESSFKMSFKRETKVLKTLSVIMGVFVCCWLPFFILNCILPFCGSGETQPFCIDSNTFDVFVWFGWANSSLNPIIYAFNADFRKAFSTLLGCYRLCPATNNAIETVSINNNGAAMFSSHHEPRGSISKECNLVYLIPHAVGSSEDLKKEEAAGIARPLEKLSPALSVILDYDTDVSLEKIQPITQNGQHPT

D4 [2] = target: T2, D4 (Homo sapiens, UniProt P21917); test: D4 binding assay (FIG. 2B)
T2 sequence (P21917 whole entry): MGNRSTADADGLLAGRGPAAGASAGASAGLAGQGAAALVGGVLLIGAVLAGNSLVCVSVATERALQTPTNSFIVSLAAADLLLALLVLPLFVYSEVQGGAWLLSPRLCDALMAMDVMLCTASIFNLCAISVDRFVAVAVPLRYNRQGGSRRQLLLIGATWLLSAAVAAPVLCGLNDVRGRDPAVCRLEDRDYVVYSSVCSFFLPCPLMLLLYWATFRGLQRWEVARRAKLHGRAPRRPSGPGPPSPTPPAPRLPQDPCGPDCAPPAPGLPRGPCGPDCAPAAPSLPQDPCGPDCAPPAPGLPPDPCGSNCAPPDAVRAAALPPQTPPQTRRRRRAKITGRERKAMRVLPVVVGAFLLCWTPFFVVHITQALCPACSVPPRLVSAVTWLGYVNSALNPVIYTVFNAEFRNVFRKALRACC

NET = NET (Homo sapiens, UniProt P23975); test: Affinity profile panel: NET; settings: inhibition of binding
Description: as §1

5-HT3 = 5-HT3 (Homo sapiens, UniProt P46098); test: Affinity profile panel: 5-HT3; settings: inhibition of binding
Alpha1A = Alpha1A (Homo sapiens, UniProt P35348); test: Affinity profile panel: Alpha1A; settings: inhibition of binding
Sequence of Alpha1A (P35348 whole entry): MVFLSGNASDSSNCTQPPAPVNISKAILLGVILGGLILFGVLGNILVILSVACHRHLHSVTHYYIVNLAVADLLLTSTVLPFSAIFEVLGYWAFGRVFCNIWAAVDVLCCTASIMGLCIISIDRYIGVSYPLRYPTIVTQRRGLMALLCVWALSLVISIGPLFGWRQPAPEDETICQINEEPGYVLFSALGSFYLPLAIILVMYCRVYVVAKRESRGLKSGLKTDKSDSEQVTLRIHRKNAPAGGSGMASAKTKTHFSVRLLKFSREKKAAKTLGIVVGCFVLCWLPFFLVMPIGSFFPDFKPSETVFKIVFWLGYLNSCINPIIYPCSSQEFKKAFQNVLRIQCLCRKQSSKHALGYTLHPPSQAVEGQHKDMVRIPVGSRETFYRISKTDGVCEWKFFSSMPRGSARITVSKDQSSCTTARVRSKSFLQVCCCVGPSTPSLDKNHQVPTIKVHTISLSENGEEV

[3] = target: D3 dopamine receptor (DAR) (Homo sapiens, UniProt P35462); test: D3 beta-arrestin functional assay (PathHunter, CHO); type: cell-based; settings: dose response curve; read-out: D3 β-arrestin assay AC50
Description: A CHO cell line was engineered to overexpress D3 dopamine receptor (DAR) and fused with a small 42-amino acid fragment of β-gal called ProLink™. In addition, these cells stably express a fusion protein of β-arrestin and a larger N-terminal deletion mutant of β-galactosidase (“enzyme acceptor”). When DAR is activated by dopamine, it stimulates binding of β-arrestin to ProLink-tagged DARs, and the two complementary parts of β-galactosidase form a functional enzyme. When substrate (PathHunter® Detection reagent) is added, βgalactosidase hydrolyzes it and generates a chemiluminescent signal.
For the 1,536-well assay, D3 PathHunter® β-arrestin cells were seeded at 2,100 cells/well in 3 μL/well media (DiscoveRx Plating Reagent 2) with MultiDrop Combi dispenser (Thermo Scientific, Logan, Utah) onto white tissue culture treated 1,536-well Aurora plates (Brooks Automation, Chelmsford, Mass.) and allowed to attach overnight at 37° C., 5% CO2. Next, 23 nL/well of compound solutions in DMSO were added with a pintool transfer (Kalypsis, San Diego, Calif.). The cells were stimulated by compounds for 90 minutes at 37° C., 5% CO2, after which 1.5 μL/well of DiscoveRx detection reagent was added with BioRAPTR FRD dispenser. […] The plates were incubated at ambient temperature for 1 h, and the luminescent signal was read on ViewLux plate reader (PerkinElmer, Waltham, Mass.).

H1 = H1 (Homo sapiens, UniProt P35367); test: Affinity profile panel: H1; settings: inhibition of binding
D4 [4] = target: T2, D4; test: Affinity profile panel: D4; settings: inhibition of binding
[5] = target: D2L human dopamine receptors (Homo sapiens, UniProt P14416); test: D2 binding assay ([^3H]methylspiperone, HEK membranes)
Sequence of D2L human dopamine receptors (P14416 whole entry): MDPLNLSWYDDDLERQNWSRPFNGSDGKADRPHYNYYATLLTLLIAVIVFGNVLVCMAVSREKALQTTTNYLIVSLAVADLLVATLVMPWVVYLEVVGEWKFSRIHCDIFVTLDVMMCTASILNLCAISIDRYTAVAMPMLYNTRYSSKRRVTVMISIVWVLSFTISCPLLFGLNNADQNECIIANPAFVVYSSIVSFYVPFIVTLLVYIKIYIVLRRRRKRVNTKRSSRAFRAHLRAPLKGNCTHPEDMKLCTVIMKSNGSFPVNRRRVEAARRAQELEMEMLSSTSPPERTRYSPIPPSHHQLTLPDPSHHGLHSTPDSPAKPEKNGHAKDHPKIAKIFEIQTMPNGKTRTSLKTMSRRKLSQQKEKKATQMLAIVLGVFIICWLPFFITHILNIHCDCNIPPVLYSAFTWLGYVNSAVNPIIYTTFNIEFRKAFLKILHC
Experimental: Compounds were tested for differences in affinity between three dopamine receptor subtypes using radio-labeled ligand binding assays. The first assay determined the Ki value of the compounds for the D2 DAR subtype using stable HEK cell lines expressing the D2L human dopamine receptors (Codex Biosciences, Gaithersburg, Md.). Cells were cultured in Dulbecco's modified Eagle's Medium containing 10% FBS, 1,000 units/mL Penicillin, 1,000 mg/mL Streptomycin, 100 mM Sodium Pyruvate, 1 μg/mL Gentamicin, and […] G418. All cells were maintained at 37° C. in 5% CO2 and 90% humidity. For radioligand binding assays, cells were removed mechanically using calcium and magnesium-free Earle's Balanced Salt Solution (EBSS(−)). Intact cells were collected by centrifugation and then lysed with 5 mM Tris-HCl and 5 mM MgCl2 at pH 7.4 in a glass homogenizer. Homogenates were centrifuged at 20,000×g for 30 minutes. The membranes were re-suspended in EBSS (pH 7.4) and protein concentration was determined using a Bradford assay according to the manufacturer's recommendations (Bio-Rad). Membranes were diluted to 24 mg/mL. […] Membrane preparations were incubated for 90 min at room temperature with various concentrations of radioligand in a reaction volume of 250 μL EBSS containing 200 mM sodium metabisulfite. Non-specific binding was determined in the presence of 4 μM (+)-butaclamol. Bound ligand was separated from unbound by filtration through GF/C filters using a PerkinElmer cell harvester with ice cold EBSS (4 washes) and quantified on a Top-count (PerkinElmer) after addition of scintillation solution. […] In order to determine the affinity of a given compound for a receptor type, competition-binding assays were performed. […] Reactions were incubated, terminated, and quantified as indicated above.

BZP Rat Brain Site = test: Affinity profile panel: BZP Rat Brain Site; settings: inhibition of binding
Sigma 2 = Sigma 2 (Homo sapiens, UniProt Q5BJF2); test: Affinity profile panel: Sigma 2; settings: inhibition of binding
D1 [6] = target: T1, D1; test: D1 binding assay (FIG. 2B)
Beta3 = Beta3 (Homo sapiens, UniProt P13945); test: Affinity profile panel: Beta3; settings: inhibition of binding
Sequence of Beta3 (P13945 whole entry): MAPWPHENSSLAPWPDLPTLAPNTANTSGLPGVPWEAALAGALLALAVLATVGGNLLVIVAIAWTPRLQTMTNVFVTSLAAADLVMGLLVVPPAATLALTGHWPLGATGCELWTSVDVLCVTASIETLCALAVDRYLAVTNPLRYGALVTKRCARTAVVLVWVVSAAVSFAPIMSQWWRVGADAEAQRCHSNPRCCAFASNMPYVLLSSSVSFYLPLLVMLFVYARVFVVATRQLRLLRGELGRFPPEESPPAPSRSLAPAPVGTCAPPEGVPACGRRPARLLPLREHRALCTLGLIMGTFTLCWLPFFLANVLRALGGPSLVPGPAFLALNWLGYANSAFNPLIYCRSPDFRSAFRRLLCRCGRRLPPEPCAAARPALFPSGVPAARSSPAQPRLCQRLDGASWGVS

5-HT2B = 5-HT2B (Homo sapiens, UniProt P41595); test: Affinity profile panel: 5-HT2B; settings: inhibition of binding
Sequence of 5-HT2B (P41595 whole entry, species assumed): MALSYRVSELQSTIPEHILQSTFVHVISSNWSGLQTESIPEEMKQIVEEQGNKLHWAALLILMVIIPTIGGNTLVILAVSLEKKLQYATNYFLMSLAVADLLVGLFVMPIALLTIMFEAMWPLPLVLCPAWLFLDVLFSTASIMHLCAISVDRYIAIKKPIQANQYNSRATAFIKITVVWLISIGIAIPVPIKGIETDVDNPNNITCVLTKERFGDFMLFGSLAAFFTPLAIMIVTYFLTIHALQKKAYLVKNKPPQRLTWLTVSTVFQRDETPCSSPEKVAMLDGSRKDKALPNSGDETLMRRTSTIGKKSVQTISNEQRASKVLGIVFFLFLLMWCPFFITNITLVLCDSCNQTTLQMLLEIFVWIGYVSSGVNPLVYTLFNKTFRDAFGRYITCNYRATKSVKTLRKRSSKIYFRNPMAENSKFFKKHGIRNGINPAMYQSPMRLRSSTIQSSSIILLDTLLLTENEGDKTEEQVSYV
Description: as §1

Alpha1D = Alpha1D (Homo sapiens, UniProt P25100); test: Affinity profile panel: Alpha1D; settings: inhibition of binding
Sequence of Alpha1D (P25100 whole entry): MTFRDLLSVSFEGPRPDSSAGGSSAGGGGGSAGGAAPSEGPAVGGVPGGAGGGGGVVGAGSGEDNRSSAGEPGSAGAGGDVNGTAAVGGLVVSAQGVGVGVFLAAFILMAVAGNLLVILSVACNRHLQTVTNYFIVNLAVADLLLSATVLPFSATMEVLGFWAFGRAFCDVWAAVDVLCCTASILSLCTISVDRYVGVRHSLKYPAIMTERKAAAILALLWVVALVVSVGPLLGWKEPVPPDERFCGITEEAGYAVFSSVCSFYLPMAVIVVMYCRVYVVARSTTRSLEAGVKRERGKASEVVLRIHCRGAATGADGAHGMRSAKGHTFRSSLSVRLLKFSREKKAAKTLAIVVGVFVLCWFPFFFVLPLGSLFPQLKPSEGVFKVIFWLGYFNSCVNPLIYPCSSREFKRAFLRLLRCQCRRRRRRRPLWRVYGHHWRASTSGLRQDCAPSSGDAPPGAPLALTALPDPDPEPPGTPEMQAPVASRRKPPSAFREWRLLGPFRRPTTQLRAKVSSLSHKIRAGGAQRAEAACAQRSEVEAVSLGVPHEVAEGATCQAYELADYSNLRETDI

H2 = H2 (Homo sapiens, UniProt P25021); test: Affinity profile panel: H2; settings: inhibition of binding
5-HT1E = 5-HT1E (Homo sapiens, UniProt P28566); test: Affinity profile panel: 5-HT1E; settings: inhibition of binding
Sequence of 5-HT1E (P28566 whole entry, species assumed): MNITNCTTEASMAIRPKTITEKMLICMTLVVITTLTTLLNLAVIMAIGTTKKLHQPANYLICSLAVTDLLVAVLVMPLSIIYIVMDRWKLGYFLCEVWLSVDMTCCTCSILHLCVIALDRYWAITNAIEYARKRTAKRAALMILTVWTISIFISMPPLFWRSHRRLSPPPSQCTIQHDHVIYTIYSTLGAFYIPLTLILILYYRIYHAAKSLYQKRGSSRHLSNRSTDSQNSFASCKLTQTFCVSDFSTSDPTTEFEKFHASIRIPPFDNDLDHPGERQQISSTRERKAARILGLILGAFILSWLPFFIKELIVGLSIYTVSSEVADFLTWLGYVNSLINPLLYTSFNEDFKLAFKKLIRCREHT

5-HT7 = 5-HT7 (Homo sapiens, UniProt P34969); test: Affinity profile panel: 5-HT7; settings: inhibition of binding

Question: What does the source list for CN1C(=O)c2ccccc2[S@+]([O-])c2ccc(C(=O)NCCc3cccs3)cc21 [Compound 55, 10-Methyl-11-oxo-N-(2-(thiophen-2-yl)ethyl)-10,11-dihydrodibenzo[b,f][1,4]thiazepine-8-carboxamide 5-(S)-oxide]?
Answer: Inhibition (%) D3 (D3): 59.1%; Inhibition (%) DOR (DOR): −23.6%; Inhibition (%) 5-HT1B (5-HT1B): 24.0%; Inhibition (%) GABAA (GABAA): 10.6%; Inhibition (%) 5-HT1A (5-HT1A): 8.2%; Inhibition (%) 5-HT1D (5-HT1D): 13.1%; Inhibition (%) D5 (D5): −8.5%; Inhibition (%) 5-HT2A (5-HT2A): 46.3%; Inhibition (%) SERT (SERT): 4.8%; Inhibition (%) D1 (D1 [1]): −6.8%; Ki (D4 [2]): 8.48 µM; Inhibition (%) NET (NET): 8.9%; Inhibition (%) 5-HT3 (5-HT3): 8.5%; Inhibition (%) Alpha1A (Alpha1A): −13.4%; AC50 [3]: 12.9 µM; Inhibition (%) H1 (H1): 41.6%; Inhibition (%) D4 (D4 [4]): 32.2%; Ki [5]: 100 nM; D3/D2 binding Ki ratio ([5]; ratio of D3 (Example 5) to D2 (Example 3) binding assay): 29.0; Inhibition (%) BZP Rat Brain Site (BZP Rat Brain Site): 0.5%; Inhibition (%) Sigma 2 (Sigma 2): −16.5%; Ki (D1 [6]): 67.1 µM; Inhibition (%) Beta3 (Beta3): 6.6%; Inhibition (%) 5-HT2B (5-HT2B): 40.1%; Inhibition (%) Alpha1D (Alpha1D): −22.6%; Inhibition (%) H2 (H2): −9.2%; Inhibition (%) 5-HT1E (5-HT1E): 9.9%; Inhibition (%) 5-HT7 (5-HT7): 53.3%
